Reference: US11091486B2, “Process for the preparation of pyrazolo[1,5-a]pyrimidines and salts thereof” (Array BioPharma Inc., priority 2016, dated 2021)

Assays:
[1] = tested on: Rat cryopreserved hepatocytes; test: In vitro metabolic stability in rat hepatocytes (Example 34); assay type: in vitro ADME, Sprague Dawley rat; details: 1 μM, predicted hepatic extraction ratio
Method: (§1) In vitro metabolic stabilities were studied at a concentration of 1 μM in the presence of liver microsomes and isolated hepatocytes.
A stock solution of the test compound was prepared at 10 mM (active compound) in DMSO. The in vitro stability of the test compound (1 μM) was assessed in the presence of hepatocytes as follows. Cryopreserved hepatocytes were thawed, isolated from shipping media and diluted to a density of 1×10^6 viable cells/mL, according to the supplier's guidelines, using Dulbecco's Modified Eagle Medium, 1×, high glucose (DMEM, Invitrogen, Carlsbad, Calif.). Viability was determined by trypan blue exclusion using a hemocytometer (3500 Hausser, VWR, West Chester, Pa.). […]
(§2) Data were acquired and peak areas were calculated for test compounds and the internal standard using Analyst 1.6.1 software (Sciex). […]
(§3) All calculations were performed using BioAssay Enterprise. The mean peak area ratios were calculated by averaging the peak area ratios (n=2) of test compound and the internal standard for each sample. Percent remaining was calculated by determining the ratio of the peak area ratio at each time point to the peak area ratio of the time-zero samples. The rate of loss of test compound (km) was determined by linear regression of—1n(f(t)) versus time. […] The t½ was determined dividing 1n(2) by km. […]

[2] = In vitro metabolic stability in human liver microsomes (Example 34); assay type: in vitro ADME; details: 1 μM, predicted hepatic extraction ratio
Method: as §1
A 100 mM potassium phosphate assay buffer solution (KPB) was prepared as follows. Both KH2PO4 and K2HPO4 were dissolved separately in reagent grade water resulting in final concentrations 100 mM. A 75:25 mixture v/v of K2HPO4:KH2PO4 was prepared and the pH of the solution was adjusted to 7.4 using diluted HCl or diluted NaOH solutions. A stock solution of test compound was prepared at 10 mM (active compound) in DMSO. The stock solution was diluted immediately before use to 2.5 μM using the KPB solution to create the working standard. All test compounds were completely soluble in DMSO by visual inspection at room temperature. […]
as §2, §3

| SMILES | Rat Hepatocyte Clearance (% ER) [1] [% ER] | Human Microsome Clearance (% ER) [2] [% ER] |
| --- | --- | --- |
| C[C@@H]1CCc2ncc(F)cc2[C@H]2CCCN2c2ccn3ncc(c3n2)C(=O)N1 [Formula I] | 64 | 79 |
| C[C@H]1CCc2ncc(F)cc2[C@H]2CCCN2c2ccn3ncc(c3n2)C(=O)N1 [formula I′] | 83 | 92 |
